Data on 67 compounds can be found in patent publication US20100029689A1, “PHOSPHODIESTERASE 4 INHIBITORS” (MEMORY PHARMACEUTICALS CORPORATION, priority 2008, published 2010).

By melting point is commonly meant the temperature, or range, at which the solid turns liquid.

The compound `COc1ccc(N(Cc2cnc(N(C)C)nc2)c2cccc(C(=O)O)c2)cc1OC1CCCC1` [Compound 52] had a melting point of 82 to 84.7 °C. Compound `O=C(O)c1cccc(N(Cc2cnco2)c2ccc(OC(F)F)c(OCC3CC3)c2)c1` [Compound 198] gave a melting point of 60.2 to 61 °C. In the case of `COc1ccc(N(Cc2cnco2)c2ccc(C(=O)O)cc2)cc1OC(C)C` [Compound 180], the melting point lay within 60.3 to 61 °C.

`CC(C)Oc1cc(N(Cc2cccnc2)c2ccc(C(=O)O)cc2)ccc1OC(F)F` [Compound 107] showed a melting point of 66.5 to 67.9 °C. For `COc1ccc(N(Cc2ccc(=O)[nH]c2)c2ccc(C(=O)O)cc2)cc1OC1CCCC1` [Compound 29], the melting point lay within 143.7 to 145.9 °C. As to `COc1cc(N(Cc2cncnc2)c2ccc(C(=O)O)cc2)ccc1OC(F)F` [Compound 153], the melting point lay within 191.3 to 191.5 °C. The value for `COc1cc(N(Cc2cccnc2)c2ccc(C(=O)O)cc2)ccc1OC(F)F` [Example 14, 4-[(4-Difluoromethoxy-3-methoxy-phenyl)-pyridin-3-ylmethyl-amino]-benzoic acid] was 183.7 to 184.9 °C.

`COc1ccc(N(Cc2cncs2)c2ccc(C(=O)O)cc2)cc1OC(F)F` [Compound 150] returned a melting point of 86.4 to 88.3 °C.

As for `COc1cc(N(Cc2cncs2)c2ccc(C(=O)O)cc2)ccc1OC(F)F` [Compound 120], the melting point is 164.9 to 165.3 °C.

For `COc1ccc(N(Cc2cncs2)c2ccc(C(=O)O)cc2)cc1OC1CCCC1` [Compound 40], the melting point was 88 to 90.3 °C. As to `CCOc1cc(N(Cc2cncs2)c2ccc(C(=O)O)cc2)ccc1OC` [Compound 130], the melting point is 73.1 to 74.5 °C.

With `COc1ccc(N(Cc2cncnc2)c2ccc(C(=O)O)cc2)cc1OCC1CC1` [Compound 195], the melting point was 185.6 to 187.2 °C. Then `O=C(O)Cc1ccc(N(Cc2cccnc2)c2ccc(OC(F)F)c(OC(F)F)c2)cc1` [Compound 69], with 107.4 to 108.1 °C; and `CCOc1cc(N(Cc2cncs2)c2ccc(C(=O)O)cc2)ccc1OC(F)F` [Compound 99], with 67 to 69.3 °C.

In turn, `O=C1NC(=O)C(c2cccc(N(Cc3cncs3)c3ccc(OC(F)F)c(OC(F)F)c3)c2)N1` (stereo not shown) [Compound 257] yielded a melting point of 63.1 to 82.3 °C. The value for `COc1ccc(N(Cc2cccnc2)c2cccc(C3NC(=O)NC3=O)c2)cc1OC1CCCC1` (stereo not shown) [Compound 239] was 99.7 to 105 °C; that for `CC(C)Oc1cc(N(Cc2cnccn2)c2cccc(C(=O)O)c2)ccc1OC(F)F` [Compound 156] was 81.2 to 82 °C. The compound `COc1cc(N(Cc2cncnc2)c2ccc(C(=O)O)cc2)ccc1OCC(F)(F)F` [Compound 186] came in with a melting point of 208.7 to 209.9 °C. Compound `COc1ccc(N(Cc2cncs2)c2cccc(C(=O)O)c2)cc1OCC1CC1` [Compound 73] displayed a melting point of 137.4 to 139.4 °C. The value for `O=C(O)c1ccc(N(Cc2cncnc2)c2ccc(OC(F)F)c(OCC3CC3)c2)cc1` [Compound 168] was 265.1 to 266.6 °C. The value for `COc1ccc(N(Cc2cncs2)c2ccc(C(=O)O)cc2)cc1OC` [Compound 138] was 86.4 to 88.3 °C; that for `CC(C)Oc1cc(N(Cc2cnccn2)c2ccc(C(=O)O)cc2)ccc1OC(F)F` [Compound 155] was 132.3 to 135.7 °C; that for `COc1ccc(N(Cc2cncnc2)c2ccc(C(=O)O)cc2)cc1OC1CCCC1` [Compound 43] was 156.6 to 159.8 °C. Then `COc1ccc(N(Cc2cncs2)c2cccc(C(=O)O)c2)cc1OC1CCCC1` [Compound 35], with 65.6 to 70.6 °C.

Compound `COc1ccc(N(Cc2cncs2)c2ccc(C(=O)O)cc2)cc1OCC1CC1` [Compound 72] yielded a melting point of 128.7 to 129.4 °C. The compound `CCOc1cc(N(Cc2cnc(C)s2)c2ccc(C(=O)O)cc2)ccc1OC(F)F` [Compound 225] came in with a melting point of 73.1 to 74.1 °C. Then `O=C(O)c1ccc(N(Cc2cnco2)c2ccc(OC(F)F)c(OC(F)F)c2)cc1` [Compound 141], with 132.4 to 135 °C. The value for `COc1ccc(N(Cc2cccnn2)c2cccc(C(=O)O)c2)cc1OC1CCCC1` [Compound 48] was 178.9 to 184.3 °C; that for `O=C(O)c1ccc(N(Cc2cncs2)c2ccc(OC(F)F)c(OC(F)F)c2)cc1` [Compound 59] was 144.3 to 145.7 °C; that for `CCOc1cc(N(Cc2cnco2)c2ccc(C(=O)O)cc2)ccc1OC(F)F` [Compound 144] was 111.1 to 113 °C.

Compound `CC(C)Oc1cc(N(Cc2cncs2)c2cccc(C(=O)O)c2)ccc1OC(F)F` [Compound 109] registered a melting point of 58.6 to 60 °C. Then `CCOc1ccc(N(Cc2cncs2)c2ccc(C(=O)O)cc2)cc1OCC` [Compound 170], with 77 to 79 °C; and `CC(C)Oc1cc(N(Cc2cccnc2)c2cccc(C(=O)O)c2)ccc1OC(F)F` [Compound 108], with 57.3 to 58.9 °C.

With `O=C(O)c1ccc(N(Cc2cnccn2)c2ccc(OC(F)F)c(OC(F)F)c2)cc1` [Compound 142], the melting point fell in the range of 158 to 161.1 °C. In the case of `COc1ccc(N(Cc2cn[nH]c2)c2ccc(C(=O)O)cc2)cc1OC1CCCC1` [Compound 39], the melting point was 108.9 to 112.3 °C. `CC(C)Oc1cc(N(Cc2cncs2)c2cncc(C(=O)O)c2)ccc1OC(F)F` [Compound 160] yielded a melting point of 121.7 to 123.1 °C.

`CCCCOc1cc(N(Cc2cccnc2)c2ccc(C(=O)O)cc2)ccc1OC(F)F` [Compound 128] yielded a melting point of 133.7 to 135.1 °C. Then `O=C(O)c1ccc(N(Cc2cncs2)c2ccc(OC(F)F)c(OC3CCCC3)c2)cc1` [Compound 104], with 67.3 to 69.7 °C; and `CCOc1cc(-c2ncc(CN(c3ccc(C(=O)O)cc3)c3ccc(OC(F)F)c(OCC)c3)o2)ccc1OC(F)F` [Compound 273], with 178.4 to 178.9 °C. `COc1ccc(N(Cc2cncs2)c2cccc(C(=O)O)c2)cc1OC(F)F` [Compound 149] gave a melting point of 86.4 to 88.3 °C. Take `O=C(O)c1cccc(N(Cc2cncs2)c2ccc(OC(F)F)c(OC3CCCC3)c2)c1` [Compound 110]: the melting point fell in the range of 56.3 to 58 °C. The value for `CCOc1cc(N(Cc2cccnc2)c2ccc(C(=O)O)cc2)ccc1OC(F)F` [Example 11, 4-[(4-Difluoromethoxy-3-ethoxy-phenyl)-pyridin-3-ylmethyl-amino]-benzoic acid] was 177.6 to 178.9 °C; that for `CCOc1cc(N(Cc2cnco2)c2cccc(C(=O)O)c2)ccc1OC` [Compound 200] was 158 to 159.8 °C; that for `O=C(O)c1ccc(N(Cc2cnccn2)c2ccc(OC(F)F)c(OCC3CC3)c2)cc1` [Compound 157] was 81.2 to 82.3 °C. The value for `COc1ccc(N(Cc2cncnc2)c2ccc(C(=O)O)cc2)cc1OC(C)C` [Compound 192] was 181.7 to 183.6 °C; that for `COc1ccc(N(Cc2cscn2)c2cccc(C(=O)O)c2)cc1OC1CCCC1` [Compound 45] was 75.5 to 77.7 °C.

Consider `CCOc1cc(N(Cc2cncnc2)c2ccc(C(=O)O)cc2)ccc1OC(F)F` [Compound 143], for which the melting point lay within 165.3 to 165.9 °C. Then `CCOc1cc(N(Cc2cnco2)c2ccc(C(=O)O)cc2)ccc1OC` [Compound 181], with 175.6 to 176.9 °C; and `COc1cc(N(Cc2cnccn2)c2ccc(C(=O)O)cc2)ccc1OC(F)F` [Compound 154], with 157.2 to 157.7 °C; and `COc1ccc(N(CC2CCNCC2)c2cccc(C(=O)O)c2)cc1OC1CCCC1` [Compound 50], with 228.8 to 232.1 °C.

On to `COc1ccc(N(Cc2cccnc2)c2ccc(C3NC(=O)NC3=O)cc2)cc1OC1CCCC1` (stereo not shown) [Compound 245], for which the melting point lay in the range of 108 to 112.5 °C. The value for `CCCCOc1cc(N(Cc2cncs2)c2ccc(C(=O)O)cc2)ccc1OC(F)F` [Compound 129] was 158.7 to 159.5 °C; that for `O=C(O)c1ccc(N(Cc2cncnc2)c2ccc(OC(F)F)c(OC(F)F)c2)cc1` [Compound 80] was 186.7 to 187.4 °C; that for `CCOc1cc(N(Cc2cncnc2)c2ccc(C(=O)O)cc2)ccc1OC` [Compound 196] was 190.9 to 191.9 °C.

Turning to `CNS(=O)(=O)c1ccc(N(Cc2cncs2)c2ccc(OC(F)F)c(OC(F)F)c2)cc1` [Compound 165], the melting point is 105.5 to 106.4 °C. Then `O=C(O)c1ccc(N(Cc2cncnc2)c2ccc(OC(F)F)c(OC3CCC3)c2)cc1` [Compound 205], with 135.1 to 136.3 °C; and `COc1ccc(N(Cc2cncs2)c2ccc(C(=O)O)cc2)cc1O[C@@H]1CCOC1` [Compound 71], with 60.3 to 60.8 °C; and `COc1ccc(N(Cc2cncs2)c2cccc(C(=O)O)c2)cc1O[C@@H]1CCOC1` [Compound 70], with 60.3 to 61.9 °C. In turn, `CC(C)Oc1cc(N(Cc2cncs2)c2ccc(C(=O)O)cc2)ccc1OC(F)F` [Compound 106] showed a melting point of 158 to 158.5 °C. `COc1cc(N(Cc2cccnc2)c2ccc(C(=O)O)cc2)ccc1OC(F)F` [Compound 124] returned a melting point of 182.4 to 183.4 °C. Turning to `O=C(O)c1cccc(N(Cc2cnccn2)c2ccc(OC(F)F)c(OCC3CC3)c2)c1` [Compound 159], the melting point was 72.7 to 73.1 °C. The compound `O=C(O)c1ccc(N(Cc2cccnn2)c2ccc(OC(F)F)c(OC(F)F)c2)cc1` [Compound 74] had a melting point of 162.6 to 164.8 °C. In turn, `COc1ccc(N(Cc2cncnc2)c2ccc(C(=O)O)cc2)cc1OC1CCC1` [Compound 193] returned a melting point of 174 to 177.9 °C. Then `O=C(O)c1ccc(N(Cc2cncnc2)c2ccc(OC(F)F)c(OCc3ccccc3)c2)cc1` [Compound 214], with 157.4 to 158.2 °C; and `COc1ccc(N(Cc2cnco2)c2ccc(C(=O)O)cc2)cc1OCC1CC1` [Compound 183], with 160 to 161.7 °C. The value for `COc1ccc(N(Cc2cncs2)c2ccc(C(=O)O)cc2)cc1OC(C)C` [Compound 131] was 67.8 to 69.1 °C; that for `COc1ccc(N(Cc2cnc(N(C)C)nc2)c2ccc(C(=O)O)cc2)cc1OC1CCCC1` [Compound 51] was 95.9 to 99.5 °C.
